From US8415333B2, “Bronchodilating diazaheteroaryls” (Respiratorious AB, priority 2009, dated 2013)

How the values were obtained:
human bronchiols [1] = experiment: Test Procedure A: remaining contraction of human bronchus preparation on LTD4 challenge after 1 h pre-treatment with test item; format: cell-based; conditions: 10 nM Leukotriene D4; for % RC 1 μM: test item 1 μM pre-treatment; for % RC 10 μm: test item 10 μm, 1 h pre-treatment
Protocol: (§1) The usefulness of the compounds, as defined in the embodiments herein, in treating, revoking, mitigating, alleviating and/or preventing a condition of the respiratory apparatus characterized by bronchoconstriction, were evaluated in a complex and relevant in vitro model, which is described in US 2006-0040254 A1 and Skogvall, S., Berglund, M., Dalence-Guzmán, M. F., Svensson, K., Jönsson, P., Persson, C. G. A and Sterner, O., Pulmonary Pharmacology and Therapeutics, vol 20:3, 2007, p. 273-280. All references disclosed herein are hereby incorporated in their entirety by reference.
(§2) Lung tissue was obtained from patients undergoing lobectomia or pulmectomia due to lung carcinoma. The tissue was placed in a dissection chamber continuously perfused with 10 ml min^−1 of a physiological saline solution (PSS) at room temperature. An airway was identified in the cut part of the lobe, and a bronchus of 10-20 mm length, and 1-2 mm diameter was obtained. The bronchus was cut into rings of a width of about 2-3 mm. Each bronchial ring was cleaved to obtain an about rectangular oblong preparation free from cartilage, one end of which was tied to a small steel hook connected to a force transducer, while the other end of the preparation was attached to a fixed hook. This is followed by a period of adjustment, as described below. The preparation was mounted in an atmosphere containing 12% of oxygen and 6% of CO2.
(§3) The experimental assay system consists of 8 chambers, each with a volume of 6 ml, and is continuously perfused with solutions at a rate of 3 ml/min at 37° C. The chambers are equipped with force transducers (model AME 801, SensoNor A/S, Horton, Norway) allowing the individual registration of parallel preparations. The force transducers are connected to micrometer screws for stretching of tissue preparations to the desired tone. Recordings from the experiments are sampled and analysed using software from ADInstrumets. The substances to be tested and contractile agent are injected upstream of the preparation(s).
(§4) Materials. PPS (physiological saline solution, in mM): NaCl, 117; KCl, 4.87; MgSO4, 0.60; NaHCO3, 25.0; CaCl2, 1.60; glucose, 5.23. The solution is saturated with a mixture of 94% oxygen and 6% carbon dioxide, giving a pH of 7.40±0.05 in the experimental chamber. All substances are prepared as stock solution dissolved in the vehicles ethanol or DMSO. Leukotriene D4 (LTD4; Cayman Ltd.): 10 μl of a 100 μM ethanol stock solution. Substance to be tested: 10-100 μl of a 0.01-0.1 M DMSO stock solution. Solution for establishing the passive tension level: calcium-free PSS+2 mM EGTA. To exclude effects by the test substance vehicle, DMSO was added during the entire experiment except during the presence of test substance.
After mounting as described above the preparation is allowed to adjust with a low passive tone in the experimental chamber. The composition of the gas is changed to 94% (v/v) of oxygen. After a short adjustment period, PSS with 10 nM LTD4 is added to the experimental chamber upstream of the preparation (A). The preparation is stretched repeatedly (B) until it exerts a contraction force of around 150 mg. When the contraction has levelled off, LTD4-free solution is administered for 1 hour (C), resulting in a relaxation. A second injection of 10 nM LTD4 (D) makes the preparation return to the tensioned state. At the peak tension leukotriene-free solution is again administered (E). After a third injection of 10 nM LTD4 (F) the preparation returns to the tensioned state. […] After 1 h exposure to the test item, 10 nM LTD4 is added, resulting in a contraction (H). If the test item is a bronkorelaxant, a substantially weaker contraction is now observed (H) in comparison with the control LTD4 contraction (F). To obtain a measure of the test substance's bronchorelaxing effect the test and control forces registered in the experiment are compared. […]

human bronchiols [2] = experiment: Test Procedure B: remaining contraction of LTD4-contracted human bronchus preparation under sequential test item concentrations; format: cell-based; conditions: for % RC 0.1 μM: test item 0.1 μM for 1 h in 10 nM LTD4 PSS; for % RC 1 μM: test item 1 μM for 1 h in 10 nM LTD4 PSS; for % RC 1 μM / % RC 10 μM: sequential; for % RC 10 μM: test item 10 μM for 1 h in 10 nM LTD4 PSS
Protocol: as §1, §2, §3, §4
After mounting as described above the preparation is allowed to adjust with a low passive tone in the experimental chamber. The composition of the gas is changed to 94% (v/v) of oxygen. After a short adjustment period, PSS with 10 nM LTD4 is added to the experimental chamber upstream of the preparation (A). The preparation is stretched repeatedly (B) until it exerts a contraction force of around 150 mg. The preparation is kept at level contraction, plateau, with 10 nM LTD4 for 30 min (C). The preparation is then treated with 0.1 μM of the test item in 10 nM LTD4 PSS for 1 h. This is followed by the sequential treatment with 1 μM of the test item in 10 nM LTD4 PSS for 1 h (E) and finally 10 uM of the test item in 10 nM LTD4 PSS for 1 h (F). The experiment is concluded by adding calcium-free solution with addition of 2 mM EGTA for 20 min to establish the passive tension level base line (G).
The result, bronchorelaxing efficiency, is calculated as follows: by comparing and obtaining the ratio between the tensioned states (relative to base line) at the different concentrations, the bronchorelaxing efficiency of the test item is determined. The results are expressed as % remaining contraction (RC). […]

SMILES: Cc1nc2ncccc2cc1C(=O)NCc1ccc(C(F)(F)F)cc1 [Example 2, 2-Methyl-N-(4-(trifluoromethyl)benzyl)-1,8-naphthyridine-3-carboxamide]
- % RC 1 μM (human bronchiols [1]): 77%
- % RC 10 μm (human bronchiols [1]): 23%

SMILES: Cc1nc2ncccc2cc1C(=O)NCc1csc(-c2ccccc2)n1 [Example 4, 2-Methyl-N-((2-phenylthiazol-4-yl)methyl)-1,8-naphthyridine-3-carboxamide]
- % RC 0.1 μM (human bronchiols [2]): 85%
- % RC 1 μM (human bronchiols [2]): 39%
- % RC 10 μM (human bronchiols [2]): 4%

SMILES: Cc1nc2ncccc2cc1C(=O)NCc1cccc(C(F)(F)F)c1 [Example 14, 2-Methyl-N-(3-(trifluoromethyl)benzyl)-1,8-naphthyridine-3-carboxamide]
- % RC 1 μM (human bronchiols [1]): 76%
- % RC 10 μm (human bronchiols [1]): 15%

SMILES: Cc1nc2ncccc2cc1C(=O)NCc1ccc(Cl)c(C(F)(F)F)c1 [Example 17, N-(4-Chloro-3-(trifluoromethyl)benzyl)-2-methyl-1,8-naphthyridine-3-carboxamide]
- % RC 1 μM (human bronchiols [1]): 67%
- % RC 10 μm (human bronchiols [1]): 8%

SMILES: Cc1nc2ncccc2cc1C(=O)NCc1ccc(-c2ccccc2)cc1 [Example 19, N-(Biphenyl-4-ylmethyl)-2-methyl-1,8-naphthyridine-3-carboxamide]
- % RC 1 μM (human bronchiols [1]): 41%
- % RC 10 μm (human bronchiols [1]): 17%

SMILES: Cc1nc2ncccc2cc1C(=O)NCc1ccc(N2CCN(C)CC2)c(C(F)(F)F)c1 [Example 62, 2-methyl-N-(4-(4-methylpiperazin-1-yl)-3-(trifluoromethyl)benzyl)-1,8-naphthyridine-3-carboxamide]
- % RC 0.1 μM (human bronchiols [2]): 92%
- % RC 1 μM (human bronchiols [2]): 63%
- % RC 10 μM (human bronchiols [2]): 17%

SMILES: Cc1nc2ncccc2cc1C(=O)OCc1csc(-c2ccccc2)n1 [Example 101, (2-Phenylthiazol-4-yl)methyl 2-methyl-1,8-naphthyridine-3-carboxylate]
- % RC 0.1 μM (human bronchiols [2]): 72%
- % RC 1 μM (human bronchiols [2]): 63%
- % RC 10 μM (human bronchiols [2]): 27%

SMILES: Cc1ccc2cc(C(=O)NCc3ccc(C(C)(C)C)cc3)c(C)nc2n1 [Example 109, N-(4-tert-butylbenzyl)-2,7-dimethyl-1,8-naphthyridine-3-carboxamide]
- % RC 0.1 μM (human bronchiols [2]): 73%
- % RC 1 μM (human bronchiols [2]): 25%
- % RC 10 μM (human bronchiols [2]): 1%
